Assay results reported in US6140364A, “Arachidonic acid metabolite, 16-HETE” (The University of Vermont and State Agricultural College, priority 1996, dated 2000).

Tests used:
[1] = tested on: intact canine and human neutrophils; conditions: cited from earlier work
[2] = tested on: formation of product A by human neutrophils; test: Inhibition of arachidonic acid metabolism (formation of product A) in intact human neutrophils; format: cell-based; conditions: SKF 525A 100 μM, BW755C 94 μM, 10 min preincubation
Experimental: Preparation of human polymorphonuclear leukocytes: Venous blood (60-70 ml) was collected from four healthy, normal volunteers into syringes containing heparin (1 U/ml). Polymorphonuclear leukocytes (PMNs) were isolated by a histopaque density gradient technique as previously described in Liu et al., Adhesion, Its role in Inflammatory Disease, Freeman and Co., New York, 1992, pp 189-192. Briefly, blood aliquots (6 ml) were layered over two layers (3 ml) of histopaque 1077 and 1119 in a conical centrifuge tube. The sample was then subjected to centrifugation at 100× g for 30 minutes at room temperature and the top layer, containing the neutrophils, was carefully collected. Hypotonic lysis was used to separate out the red blood cells. […] Total cells were counted using a hemocytometer and leukocytes were counted after staining with Wright-Giemsa stain. For each experiment, the cell preparations used contain ≥97% neutrophils, having ≥95% viability as determined by a trypan blue exclusion assay. […]
After ten minutes in arachidonic acid the reaction was terminated by the addition of cold methanol (four volumes). […] The effluent was passed through a UV detector (HP1050/ChemStation-Hewlett-Packard, Palo Alto, Calif.) and a radioactivity detector (Radiomatic, Meridian, Conn.) with a splitter (ratio 1:10) and collected in 1 ml fractions.

neutrophil aggregation = test: Neutrophil aggregation (inventors' finding, method not given at the place); format: cell-based
human neutrophils = test: Agonist activity on human neutrophils; format: cell-based; conditions: ≤20 μM
[3] = tested on: thrombin-stimulated human neutrophils (adhesion to a gelatin matrix); test: Neutrophil adhesion to gelatin matrix, thrombin-stimulated; format: cell-based; conditions: for inhibition at 1 µM: Homo sapiens, Neutrophil, thrombin 1 U/ml, 3×10^6 cells/ml, 10 min preincubation
Experimental: (§1) Preparation of human polymorphonuclear leukocytes: Venous blood (60-70 ml) was collected from four healthy, normal volunteers into syringes containing heparin (1 U/ml). Polymorphonuclear leukocytes (PMNs) were isolated by a histopaque density gradient technique as previously described in Liu et al., Adhesion, Its role in Inflammatory Disease, Freeman and Co., New York, 1992, pp 189-192. Briefly, blood aliquots (6 ml) were layered over two layers (3 ml) of histopaque 1077 and 1119 in a conical centrifuge tube. The sample was then subjected to centrifugation at 100× g for 30 minutes at room temperature and the top layer, containing the neutrophils, was carefully collected. Hypotonic lysis was used to separate out the red blood cells. The neutrophils were then isolated from the sample by centrifugation (2000× g) and suspended in Hanks balanced salt solution (HBSS) containing 1 mM Ca^2+ and 0.8 mM Mg^2+ for studies involving arachidonic acid metabolism, and in M199 (with 1% BSA) for neutrophil adhesion assays. Total cells were counted using a hemocytometer and leukocytes were counted after staining with Wright-Giemsa stain. For each experiment, the cell preparations used contain ≥97% neutrophils, having ≥95% viability as determined by a trypan blue exclusion assay.
Neutrophil adhesion: Isolated neutrophils were resuspended in M199 containing 1% BSA with a final concentration of 3×10^6 cells per ml. Cells suspensions (1 ml) were incubated with or without a test compound, 16(S)-HETE, 16(R)-HETE, or 20-HETE (concentrations 1 nM to 10 μM) for 10 min and then placed into gelatin-coated wells and further incubated for 20 min at 37° C. The wells were washed three times with 0.5 ml of solution M199 to remove non-adherent cells. The adherent cells were then removed by addition of 0.4 ml of 0.25% trypsin-EDTA in 0.1 M PBS to the gelatin-coated wells and incubation for 10 min at 37° C. […] The amount of cells in combined solutions was counted. […] The inhibition of adhesion was expressed as percent of cells remaining in suspension (non-adherent) relative to control. […]

[4] = tested on: oxygen free radicals (OFR) release stimulated by fMLP; test: fMLP-stimulated oxygen free radical (OFR) release, chemiluminescence, in diluted human blood; format: cell-based; conditions: 10 min, 1 μM HETE, fMLP 5×10^-7 M, N = 3 to 4, read-out: OFR Release (percent of inhibition from HETE untreated cells)
Experimental: (§2) Neutrophil activity: Stimulated neutrophil aggregation and oxygen free radical release were examined in whole human blood using a whole-blood aggregometer-chemiluminometer (Chronolog, Haverton, Pa.) as described Bednar et al. J. Thromb. Thrombol. 1, 179-185 (1995). Blood samples containing heparin (1 U/ml) as the anticoagulant were diluted in HBSS in proportion 1 to 9. Diluted blood aliquots (1 ml) were stirred (400 rpm) in a prewarmed (37° C.) siliconized cuvette containing cytochalasin b (5 μg/ml) and luminol (in 8 μl DMSO, 500 μM final concentration) and the test HETE (concentration 0.01 to 10 μM) for 10 min. Neutrophils were stimulated with a submaximal dose of FMLP (5×10^-7 M final concentration). The aggregation and chemiluminescence were simultaneously measured as changes of impedance and luminescence respectively. The fMLP-induced chemiluminescence was calculated as the peak height of the reaction.

[5] = tested on: basal human neutrophils (adhesion to a gelatin matrix); test: Neutrophil adhesion to gelatin matrix, basal (unstimulated); format: cell-based; conditions: for inhibition of neutrophil adhesion, basal: 20-HETE at ≤10 μM, 16-HETE isomers 10^-8 to 10^-5 M; for inhibition at 1 µM: Homo sapiens, Neutrophil, 10 min preincubation; for potency of neutrophil inhibition relative to the other stereoisomer: unstimulated and stimulated neutrophils
Experimental: as §1
Neutrophil adhesion: Isolated neutrophils were resuspended in M199 containing 1% BSA with a final concentration of 3×10^6 cells per ml. Cells suspensions (1 ml) were incubated with or without a test compound, 16(S)-HETE, 16(R)-HETE, or 20-HETE (concentrations 1 nM to 10 μM) for 10 min and then placed into gelatin-coated wells and further incubated for 20 min at 37° C. The wells were washed three times with 0.5 ml of solution M199 to remove non-adherent cells. The adherent cells were then removed by addition of 0.4 ml of 0.25% trypsin-EDTA in 0.1 M PBS to the gelatin-coated wells and incubation for 10 min at 37° C. The incubates were transferred and the wells were washed with 0.1 ml of M199 solution. The amount of cells in combined solutions was counted. In some experiments, the adhesion of neutrophils was stimulated by addition of 1 U/ml of thrombin to neutrophil suspension immediately prior to the transfer of cells to the wells. Experiments were performed in duplicates for each concentration of HETE. The inhibition of adhesion was expressed as percent of cells remaining in suspension (non-adherent) relative to control. The range of adherent PMNs in control incubations was 6 to 23%. This was increased two-fold in the presence of thrombin.

[6] = tested on: neutrophil aggregation stimulated by fMLP; test: fMLP-induced neutrophil aggregation in diluted whole human blood; format: cell-based; conditions: for inhibition at 1 µM: 10 min, 1 μM HETE, N = 3 to 4, read-out: Aggregation (percent of inhibition from HETE untreated cells); for inhibition of fMLP-induced neutrophil aggregation: ≤10 μM
Experimental: as §2

[7] = tested on: platelet or other leukocyte; test: Platelet or other leukocyte activity or function
[8] = Neutrophil, fMLP 5×10^-7 M, diluted human blood

For `[C-]#[O+]` [carbon monoxide], which “inhibition of formation of polar arachidonic acid metabolites” value [1] is on record?
The value was “formation can be inhibited”.

With `NC1=NN(c2cccc(C(F)(F)F)c2)CC1` [BW755C] as the molecule, how does the “inhibition of formation of product A” value [2] read?
Its value is “not with BW755C”.

With `O=C(O)CCC/C=C\C/C=C\C/C=C\C/C=C\CCCCCO` [20-HETE, reference compound] as the molecule, how does the “inhibition of neutrophil aggregation” value (neutrophil aggregation) read?
Its value is “neither 20-HETE nor 15-HETE inhibited neutrophil aggregation”.

What about the “agonist activity on human neutrophils” value (human neutrophils) of the same molecule?
Its value is “no detectable agonist activity”.

What about the “inhibition of neutrophil adhesion, thrombin-stimulated” value ([3]; thrombin-stimulated, 20-HETE at ≤10 μM, 16-HETE isomers 10^-8 to 10^-5 M) of the same molecule?
Its value is “did not inhibit neutrophil adhesion”.

And the inhibition at 1 µM [4]?
The inhibition at 1 µM was 3.9 ± 13.4%.

What about the “inhibition of neutrophil adhesion, basal” value [5] of the same molecule?
Its value is “did not inhibit neutrophil adhesion”.

What about the inhibition at 1 µM [6, 8] of the same molecule?
Its inhibition at 1 µM is 8.1 ± 2.6%.

And the “inhibition of fMLP-induced neutrophil aggregation” value [6]?
The value was “not active”.

Which “agonist activity on human neutrophils” value (human neutrophils) does the source give for `CCCC[C@H](O)/C=C\C/C=C\C/C=C\C/C=C\CCCC(=O)O` [16(S)-HETE, S-stereoisomer of 16-hydroxyeicosatetraenoic acid] here?
Its value is “no detectable agonist activity”.

And the inhibition at 1 µM [3]?
The inhibition at 1 µM was 40 ± 14%.

And the inhibition at 1 µM [4]?
Its inhibition at 1 µM is 5.6 ± 16.7%.

What about the inhibition at 1 µM ([5]; gelatin matrix) of the same molecule?
Its inhibition at 1 µM is 39 ± 8%.

What about the “inhibition of neutrophil adhesion, basal” value [5] of the same molecule?
The value was “inhibited neutrophil adhesion in a dose-dependent manner”.

And the “potency of neutrophil inhibition relative to the other stereoisomer” value [5]?
The value was “less potent”.

What about the inhibition at 1 µM [6, 8] of the same molecule?
Its inhibition at 1 µM is 7 ± 3.5%.

What about the “inhibition of fMLP-induced neutrophil aggregation” value [6] of the same molecule?
Its value is “not active”.

For `CCCCC[C@H](O)/C=C/C=C\C/C=C\C/C=C\CCCC(=O)O` [15-HETE], which “inhibition of neutrophil aggregation” value (neutrophil aggregation) is on record?
The value was “neither 20-HETE nor 15-HETE inhibited neutrophil aggregation”.

Which “agonist activity on human neutrophils” value (human neutrophils) does the source give for `CCCC[C@@H](O)/C=C\C/C=C\C/C=C\C/C=C\CCCC(=O)O` [16(R)-HETE, 16(R)-hydroxy-5,8,11,14-eicosatetraenoic acid] here?
Its value is “no detectable agonist activity”.

And the inhibition at 1 µM [3]?
Its inhibition at 1 µM is 50 ± 4%.

And the inhibition at 1 µM [4]?
The inhibition at 1 µM was 8.9 ± 5.1%.

What about the “inhibition of neutrophil adhesion to gelatin” value ([5]; 10 μM, preincubation) of the same molecule?
The value was “completely inhibited”.

And the inhibition at 1 µM ([5]; gelatin matrix)?
Its inhibition at 1 µM is 73 ± 11%.

What about the “inhibition of neutrophil adhesion, basal” value [5] of the same molecule?
Its value is “inhibited neutrophil adhesion in a dose-dependent manner”.

And the “preincubation time required to inhibit adhesion” value ([5]; gelatin matrix)?
The value was 10 min.

What about the “potency of neutrophil inhibition relative to the other stereoisomer” value [5] of the same molecule?
The value was “more potent than the effect observed with the opposite stereoisomer”.

And the inhibition at 1 µM [6, 8]?
The inhibition at 1 µM was 42 ± 11%.

And the IC50 ([6]; Neutrophil, fMLP 5×10^-7 M, diluted human blood, read-out: IC50, inhibition of fMLP-induced neutrophil aggregation)?
The IC50 was 1.2 µM.

With `CCCCC(O)/C=C\C/C=C\C/C=C\C/C=C\CCCC(=O)O` (stereo not shown) [16-HETE, 16-hydroxyeicosatetraenoic acid] as the molecule, how does the “effect on platelet or other leukocyte activity or function” value [7] read?
The value was “does not affect platelet or other leukocyte activity or function”.

Which results are given for `CCCC(C(=O)OCCN(CC)CC)(c1ccccc1)c1ccccc1` [SKF525A]?
inhibition of formation of product A [2]: can be inhibited with SKF525A; inhibition of formation of polar arachidonic acid metabolites [1]: formation can be inhibited
